Values after ≈ are worked out from the molar mass of the structure shown.
Tested on: E. coli strains
Test: CLSI overnight reference method, broth microdilution MIC
Format: cell-based
Conditions: for MIC (CLSI Ref): unit assumed
[1] = E. coli strain Clinical Sample 1
[2] = E. coli strain Clinical Sample 2
[3] = E. coli strain Clinical Sample 4
[4] = E. coli strain Clinical Sample 5
[5] = E. coli strain Clinical Sample 6
[6] = E. coli strain Clinical Sample 7
[7] = E. coli strain Clinical Sample 8
[8] = E. coli strain Clinical Sample 9
[9] = E. coli strain Clinical Sample 10
[10] = E. coli strain Clinical Sample 11
[11] = E. coli strain Clinical Sample 12
[12] = E. coli strain Clinical Sample 13

| Compound | MIC (CLSI Ref) (E. coli strain BEI 4.097) [µg/mL] | MIC (CLSI Ref) (E. coli strain CDC Carba36) [µg/mL] | MIC (CLSI Ref) [1] [µg/mL] | MIC (CLSI Ref) [2] [µg/mL] | MIC (CLSI Ref) [3] [µg/mL] | MIC (CLSI Ref) [4] [µg/mL] | MIC (CLSI Ref) [5] [µg/mL] | MIC (CLSI Ref) [6] [µg/mL] | MIC (CLSI Ref) [7] [µg/mL] | MIC (CLSI Ref) [8] [µg/mL] | MIC (CLSI Ref) [9] [µg/mL] | MIC (CLSI Ref) [10] [µg/mL] | MIC (CLSI Ref) [11] [µg/mL] | MIC (CLSI Ref) [12] [µg/mL] | Interpretation letter [2] |
| --- | --- | --- | --- | --- | --- | --- | --- | --- | --- | --- | --- | --- | --- | --- | --- |
| CC(C)(O/N=C(\C(=O)N[C@@H]1C(=O)N2C(C(=O)[O-])=C(C[n+]3ccccc3)CS[C@H]12)c1csc(N)n1)C(=O)O [CAZ, Ceftazidime] | 0.25 (≈ 0.457 µM) | 4 (≈ 7.32 µM) | 0.25 (≈ 0.457 µM) | 2 (≈ 3.66 µM) | 0.25 (≈ 0.457 µM) | 0.25 (≈ 0.457 µM) | 0.12 (≈ 0.22 µM) | 0.25 (≈ 0.457 µM) | > 32 | > 32 | 0.12 (≈ 0.22 µM) | 0.25 (≈ 0.457 µM) | 0.12 (≈ 0.22 µM) | 0.12 (≈ 0.22 µM) | – |
| Piperacillin/tazobactam [TZP] | 4 | 128 | 4 | 8 | 4 | 4 | 2 | 4 | 32 | > 128 | 2 | 2 | 2 | 32 | – |
| CC1(C)S[C@@H]2[C@H](NC(=O)[C@H](N)c3ccccc3)C(=O)N2[C@H]1C(=O)O [AMP, Ampicillin] | 4 (≈ 11.4 µM) | > 32 | 4 (≈ 11.4 µM) | > 32 | > 32 | > 32 | 4 (≈ 11.4 µM) | > 32 | > 32 | > 32 | > 32 | 4 (≈ 11.4 µM) | 4 (≈ 11.4 µM) | > 32 | – |
| Ampicillin/sulbactam [SAM] | 8 | > 32 | 4 | 16 | 16 | 8 | 2 | 16 | 64 | 32 | 16 | 4 | 2 | > 32 | I |
| Trimethoprim-Sulfamethoxazole [SXT] | < 0.5 | < 0.5 | < 0.5 | 4 | > 32 | > 32 | 2 | > 32 | < 0.5 | > 32 | > 32 | < 0.5 | < 0.5 | < 0.5 | R |
| C[C@H]1COc2c(N3CCN(C)CC3)c(F)cc3c(=O)c(C(=O)O)cn1c23 [LVX, Levofloxacin] | < 0.06 | > 8 | < 0.06 | < 0.06 | > 8 | > 8 | < 0.06 | < 0.06 | < 0.06 | > 8 | 8 (≈ 22.1 µM) | < 0.06 | 0.5 (≈ 1.38 µM) | < 0.06 | – |
| Gentamycin | 0.5 | 2 | 0.5 | 4 | 0.5 | 2 | 0.5 | 0.5 | 1 | 1 | > 16 | 2 | 1 | 1 | – |

Reference: patent publication US12203124B2, “Methods for improved rapid antimicrobial susceptibility testing” (priority 2016, dated 2025)
